Data as given in US20140072613A1, “Compositions and Methods for Treating Cutaneous Scarring” (priority 2012, published 2014).
Where no end group is shown, it is not given here.

Legend:
[1] = test system: hypertrophic scarring induced by mechanical loading; experiment: Mouse model of hypertrophic scarring induced by mechanical loading: scar area, gross and histological; type: in vivo; conditions: 50 μg/kg intraperitoneal daily day 0 through day 14
Experimental: Dorsal skins were distracted laterally along both sides of the wound edge by a distraction rate of 1 mm/day from day 4 to day 7, and then 2 mm/day from day 8 to day 14. […] At day 14, skin wounds were photographed digitally, and scar areas were measured by Image J software. Tissue was harvested for RNA extraction, Florescence-Activated Cell Sorting (FACS) analysis, and histological examination.
Digital photographs were taken on the day of surgery and every two days thereafter. Gross scar appearance was assessed by tracing the wound margin and calculating the hypertrophic scar area.
Scar samples from each mouse were fixed in 10% formalin and embedded in paraffin. Sections were made and stained with hematoxylin and eosin (H&E) to assess scar tissue deposition. […] Scar areas were outlined, and areas were measured by using Image J software. Scale bar=100 μm.

[2] = test system: 266 human kinases; experiment: biochemical; type: biochemical; conditions: at 100 μM
Source text: (§1) Specifically, in these assays, a positively charged substrate is phosphorylated with a radiolabeled phosphate group from an ATP if the kinase is not inhibited by an inhibitor peptide. The positively charged substrate then is attracted to a negatively charged filter membrane, quantified with a scintillation counter, and compared to a 100% activity control.

[3] = target: LOK (h) (Homo sapiens, UniProt O94804); experiment: Millipore radiometric kinase assay (IC50 Profiler Express); type: biochemical
Source text: as §1

[4] = target: T1, DMPK (h) (Homo sapiens, UniProt Q09013); experiment: as above; type: biochemical
T1 sequence (Q09013 1-629): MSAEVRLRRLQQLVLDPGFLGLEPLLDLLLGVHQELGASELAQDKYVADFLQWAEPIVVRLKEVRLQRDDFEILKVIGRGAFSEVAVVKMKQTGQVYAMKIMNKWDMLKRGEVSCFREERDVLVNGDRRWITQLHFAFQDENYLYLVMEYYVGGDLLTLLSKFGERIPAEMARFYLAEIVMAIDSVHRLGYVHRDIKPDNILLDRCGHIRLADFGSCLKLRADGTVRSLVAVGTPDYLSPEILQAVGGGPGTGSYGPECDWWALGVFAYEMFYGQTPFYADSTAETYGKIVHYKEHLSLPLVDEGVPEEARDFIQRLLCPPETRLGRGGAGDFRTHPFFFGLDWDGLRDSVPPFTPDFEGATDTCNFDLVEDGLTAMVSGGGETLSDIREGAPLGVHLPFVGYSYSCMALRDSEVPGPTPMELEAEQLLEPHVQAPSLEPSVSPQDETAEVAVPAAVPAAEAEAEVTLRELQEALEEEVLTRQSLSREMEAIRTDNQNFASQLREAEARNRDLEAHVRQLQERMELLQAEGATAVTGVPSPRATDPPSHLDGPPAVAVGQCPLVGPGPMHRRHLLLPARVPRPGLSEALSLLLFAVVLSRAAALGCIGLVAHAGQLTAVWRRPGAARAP
Source text: as §1

[5] = target: T2, DRAK1 (h) (Homo sapiens, UniProt Q9UEE5); experiment: as above; type: biochemical
T2 sequence (Q9UEE5 1-414): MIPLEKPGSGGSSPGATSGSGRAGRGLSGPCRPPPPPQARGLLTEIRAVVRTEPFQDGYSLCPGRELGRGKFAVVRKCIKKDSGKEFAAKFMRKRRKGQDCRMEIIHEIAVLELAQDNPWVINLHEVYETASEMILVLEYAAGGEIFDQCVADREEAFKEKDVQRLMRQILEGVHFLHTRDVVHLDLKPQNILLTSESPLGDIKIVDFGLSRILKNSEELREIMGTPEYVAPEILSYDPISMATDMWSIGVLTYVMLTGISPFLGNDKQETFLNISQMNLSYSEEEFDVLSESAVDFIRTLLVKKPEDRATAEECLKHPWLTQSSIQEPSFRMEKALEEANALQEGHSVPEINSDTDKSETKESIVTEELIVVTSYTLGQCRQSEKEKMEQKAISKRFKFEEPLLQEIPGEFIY
Source text: as §1

[6] = target: EGFR (L861Q) (h) (Homo sapiens, UniProt P00533, L861Q); experiment: as above; type: biochemical
Source text: as §1

[7] = target: MAPKAP-K3 (h) (Homo sapiens, UniProt Q16644); experiment: Millipore radiometric kinase assay (IC50 Profiler Express / kinase profiling); type: biochemical
Source text: as §1

[8] = target: TrkB (h) (Homo sapiens, UniProt Q16620); experiment: as above; type: biochemical
Source text: as §1

[9] = target: MAPKAP-K2 (h) (Homo sapiens, UniProt P49137); experiment: as above; type: biochemical
Source text: as §1

[10] = target: 266 human kinases (Homo sapiens, UniProt Q9H1R3); experiment: biochemical; type: biochemical; conditions: MLCK(h); 100 μM
Source text: as §1

[11] = target: Fes(h) (Homo sapiens, UniProt P07332); experiment: biochemical
Source text: as §1

[12] = target: CaMK1δ (h) (Homo sapiens, UniProt Q8IU85); experiment: biochemical
Source text: as §1

[13] = target: FGFR2 (h) (Homo sapiens, UniProt P21802); experiment: biochemical
Source text: as §1

[14] = target: Yes (h) (Homo sapiens, UniProt P07947); experiment: biochemical
Source text: as §1

[15] = target: Fgr (h) (Homo sapiens, UniProt P09769); experiment: biochemical
Source text: as §1

[16] = target: Pim-1 (h) (Homo sapiens, UniProt P11309); experiment: biochemical
Source text: as §1

[17] = target: CaMKI (h) (Homo sapiens, UniProt Q14012); experiment: biochemical
Source text: as §1

[18] = target: EphA2 (h) (Homo sapiens, UniProt P29317); experiment: biochemical
Source text: as §1

[19] = target: MSK1 (h) (Homo sapiens, UniProt O75582); experiment: biochemical
Source text: as §1

[20] = target: T3, Melanocortin 4 (Homo sapiens, UniProt P32245); experiment: Cerep binding assay (radiolabelled ligand competition)
T3 construct: Cerep
Experimental: (§2) Each binding assay was performed in 6-control wells with or without vehicle plus an 8-point dose-response of the relevant reference compound.

[21] = target: T4, Neurokinin 2 (Homo sapiens, UniProt P21452); experiment: as above
T4 construct: Cerep
Experimental: as §2

[22] = target: T5, Serotonin 2A (Homo sapiens, UniProt P28223); experiment: as above
T5 construct: Cerep
Experimental: as §2

[23] = test system: PKA; conditions: AIP 1 μM; cited from earlier work
[24] = target: CaMKIV (Homo sapiens, UniProt Q16566); conditions: AIP 1 μM; cited from earlier work
[25] = test system: Ca^2+/calmodulin-dependent protein kinase II (CaMKII); conditions: cited from earlier work
[26] = test system: PKC; conditions: AIP 1 μM; cited from earlier work
[27] = read-out: % Activity of off-target receptor

T5 sequence (P28223 whole entry): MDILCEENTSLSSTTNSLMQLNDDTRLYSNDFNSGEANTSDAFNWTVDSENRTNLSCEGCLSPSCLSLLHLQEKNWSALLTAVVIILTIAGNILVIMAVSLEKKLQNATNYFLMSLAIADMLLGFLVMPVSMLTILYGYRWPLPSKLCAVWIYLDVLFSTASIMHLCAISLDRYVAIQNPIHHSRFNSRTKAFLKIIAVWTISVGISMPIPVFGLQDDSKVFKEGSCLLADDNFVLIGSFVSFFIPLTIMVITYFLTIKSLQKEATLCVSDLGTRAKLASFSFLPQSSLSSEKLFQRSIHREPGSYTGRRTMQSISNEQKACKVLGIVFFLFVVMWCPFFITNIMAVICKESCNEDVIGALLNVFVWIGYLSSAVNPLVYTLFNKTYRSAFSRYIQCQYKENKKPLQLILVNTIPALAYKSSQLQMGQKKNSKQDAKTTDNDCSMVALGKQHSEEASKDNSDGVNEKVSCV
T3 sequence (P32245 whole entry): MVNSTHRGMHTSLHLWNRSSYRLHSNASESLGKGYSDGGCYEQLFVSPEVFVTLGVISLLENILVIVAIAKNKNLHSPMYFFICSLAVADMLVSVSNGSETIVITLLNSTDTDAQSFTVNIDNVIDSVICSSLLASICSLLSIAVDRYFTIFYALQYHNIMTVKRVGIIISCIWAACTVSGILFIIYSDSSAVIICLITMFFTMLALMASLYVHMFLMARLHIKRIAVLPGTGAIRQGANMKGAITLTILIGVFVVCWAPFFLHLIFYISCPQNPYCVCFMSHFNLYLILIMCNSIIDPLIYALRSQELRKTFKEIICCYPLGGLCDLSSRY
T4 sequence (P21452 whole entry): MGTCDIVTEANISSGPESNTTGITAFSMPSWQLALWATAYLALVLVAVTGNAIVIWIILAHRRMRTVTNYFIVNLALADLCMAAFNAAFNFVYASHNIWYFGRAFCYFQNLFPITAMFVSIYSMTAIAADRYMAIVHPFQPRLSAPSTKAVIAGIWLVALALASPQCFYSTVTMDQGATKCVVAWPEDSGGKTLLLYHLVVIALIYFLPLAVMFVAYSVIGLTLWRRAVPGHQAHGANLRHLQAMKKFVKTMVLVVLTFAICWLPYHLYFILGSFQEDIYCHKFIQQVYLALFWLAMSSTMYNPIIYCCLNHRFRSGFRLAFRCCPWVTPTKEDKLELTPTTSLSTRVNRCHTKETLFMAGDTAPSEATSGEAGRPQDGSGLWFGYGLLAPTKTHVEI
Chain of MAPKAP-K3 (h) (Q16644 whole entry): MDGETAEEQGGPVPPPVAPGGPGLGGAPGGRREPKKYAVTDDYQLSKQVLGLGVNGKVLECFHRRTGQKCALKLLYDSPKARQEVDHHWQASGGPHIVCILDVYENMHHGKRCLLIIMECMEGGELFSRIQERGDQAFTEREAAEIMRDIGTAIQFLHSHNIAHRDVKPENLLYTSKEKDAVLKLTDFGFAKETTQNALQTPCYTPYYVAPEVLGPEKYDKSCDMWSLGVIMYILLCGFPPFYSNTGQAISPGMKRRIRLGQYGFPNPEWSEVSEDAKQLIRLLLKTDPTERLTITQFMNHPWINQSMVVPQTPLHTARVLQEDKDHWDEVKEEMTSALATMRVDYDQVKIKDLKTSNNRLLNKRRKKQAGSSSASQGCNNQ
Chain of CaMKI (h) (Q14012 whole entry): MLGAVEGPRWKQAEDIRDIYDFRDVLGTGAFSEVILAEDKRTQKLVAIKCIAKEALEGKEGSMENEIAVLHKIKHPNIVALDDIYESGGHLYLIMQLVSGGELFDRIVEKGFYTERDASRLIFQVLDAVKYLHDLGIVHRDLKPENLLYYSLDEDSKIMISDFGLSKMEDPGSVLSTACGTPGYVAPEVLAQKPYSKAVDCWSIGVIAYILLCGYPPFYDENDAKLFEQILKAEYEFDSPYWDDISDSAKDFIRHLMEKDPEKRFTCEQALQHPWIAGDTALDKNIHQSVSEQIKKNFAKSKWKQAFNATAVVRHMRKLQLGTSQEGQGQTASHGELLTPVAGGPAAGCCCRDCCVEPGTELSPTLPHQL
Chain of MAPKAP-K2 (h) (P49137 whole entry): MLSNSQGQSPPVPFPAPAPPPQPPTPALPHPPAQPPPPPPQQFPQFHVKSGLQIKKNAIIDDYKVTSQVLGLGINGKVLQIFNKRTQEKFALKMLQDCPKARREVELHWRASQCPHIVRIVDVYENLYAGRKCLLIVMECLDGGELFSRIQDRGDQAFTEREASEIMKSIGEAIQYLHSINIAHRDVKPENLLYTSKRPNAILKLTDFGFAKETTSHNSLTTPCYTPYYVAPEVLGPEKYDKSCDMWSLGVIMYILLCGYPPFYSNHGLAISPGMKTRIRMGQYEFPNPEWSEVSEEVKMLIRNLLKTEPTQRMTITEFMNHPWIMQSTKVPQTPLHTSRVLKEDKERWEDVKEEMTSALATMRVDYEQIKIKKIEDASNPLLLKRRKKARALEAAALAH
Chain of TrkB (h) (Q16620 32-822): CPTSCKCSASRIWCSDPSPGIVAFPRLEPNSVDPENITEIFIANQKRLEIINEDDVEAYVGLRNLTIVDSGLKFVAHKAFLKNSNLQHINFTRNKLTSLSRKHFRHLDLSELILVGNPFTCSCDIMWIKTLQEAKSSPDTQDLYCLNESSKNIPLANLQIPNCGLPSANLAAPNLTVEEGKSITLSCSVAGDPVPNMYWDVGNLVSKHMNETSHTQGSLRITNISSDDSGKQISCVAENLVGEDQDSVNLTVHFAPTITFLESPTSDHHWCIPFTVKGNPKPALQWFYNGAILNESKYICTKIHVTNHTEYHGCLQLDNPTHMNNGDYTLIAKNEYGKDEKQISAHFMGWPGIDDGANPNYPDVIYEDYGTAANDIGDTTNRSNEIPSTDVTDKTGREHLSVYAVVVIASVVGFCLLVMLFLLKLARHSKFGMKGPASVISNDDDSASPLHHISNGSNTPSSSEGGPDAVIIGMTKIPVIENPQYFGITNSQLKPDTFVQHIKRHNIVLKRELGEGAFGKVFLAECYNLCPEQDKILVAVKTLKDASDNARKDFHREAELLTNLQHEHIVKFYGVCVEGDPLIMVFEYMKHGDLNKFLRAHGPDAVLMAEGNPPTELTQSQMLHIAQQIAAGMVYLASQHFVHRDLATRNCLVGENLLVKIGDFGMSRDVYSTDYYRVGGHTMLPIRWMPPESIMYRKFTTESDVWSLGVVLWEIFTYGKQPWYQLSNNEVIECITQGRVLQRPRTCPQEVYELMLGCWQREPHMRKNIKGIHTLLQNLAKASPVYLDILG
Chain of Yes (h) (P07947 whole entry): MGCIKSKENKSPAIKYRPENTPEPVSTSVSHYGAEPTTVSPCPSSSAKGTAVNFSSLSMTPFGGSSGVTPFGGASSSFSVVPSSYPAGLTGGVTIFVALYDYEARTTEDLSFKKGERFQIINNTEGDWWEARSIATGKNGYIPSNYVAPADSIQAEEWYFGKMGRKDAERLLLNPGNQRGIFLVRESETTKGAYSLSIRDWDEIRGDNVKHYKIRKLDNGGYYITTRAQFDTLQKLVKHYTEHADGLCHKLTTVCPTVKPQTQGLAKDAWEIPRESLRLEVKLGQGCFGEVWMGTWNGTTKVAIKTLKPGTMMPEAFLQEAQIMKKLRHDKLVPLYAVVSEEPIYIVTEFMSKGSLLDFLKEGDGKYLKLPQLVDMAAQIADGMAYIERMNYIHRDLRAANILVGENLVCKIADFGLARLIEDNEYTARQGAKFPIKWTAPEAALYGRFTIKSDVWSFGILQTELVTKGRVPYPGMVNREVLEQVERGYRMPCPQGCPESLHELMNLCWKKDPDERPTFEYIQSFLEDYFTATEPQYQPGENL
Chain of EphA2 (h) (P29317 24-976): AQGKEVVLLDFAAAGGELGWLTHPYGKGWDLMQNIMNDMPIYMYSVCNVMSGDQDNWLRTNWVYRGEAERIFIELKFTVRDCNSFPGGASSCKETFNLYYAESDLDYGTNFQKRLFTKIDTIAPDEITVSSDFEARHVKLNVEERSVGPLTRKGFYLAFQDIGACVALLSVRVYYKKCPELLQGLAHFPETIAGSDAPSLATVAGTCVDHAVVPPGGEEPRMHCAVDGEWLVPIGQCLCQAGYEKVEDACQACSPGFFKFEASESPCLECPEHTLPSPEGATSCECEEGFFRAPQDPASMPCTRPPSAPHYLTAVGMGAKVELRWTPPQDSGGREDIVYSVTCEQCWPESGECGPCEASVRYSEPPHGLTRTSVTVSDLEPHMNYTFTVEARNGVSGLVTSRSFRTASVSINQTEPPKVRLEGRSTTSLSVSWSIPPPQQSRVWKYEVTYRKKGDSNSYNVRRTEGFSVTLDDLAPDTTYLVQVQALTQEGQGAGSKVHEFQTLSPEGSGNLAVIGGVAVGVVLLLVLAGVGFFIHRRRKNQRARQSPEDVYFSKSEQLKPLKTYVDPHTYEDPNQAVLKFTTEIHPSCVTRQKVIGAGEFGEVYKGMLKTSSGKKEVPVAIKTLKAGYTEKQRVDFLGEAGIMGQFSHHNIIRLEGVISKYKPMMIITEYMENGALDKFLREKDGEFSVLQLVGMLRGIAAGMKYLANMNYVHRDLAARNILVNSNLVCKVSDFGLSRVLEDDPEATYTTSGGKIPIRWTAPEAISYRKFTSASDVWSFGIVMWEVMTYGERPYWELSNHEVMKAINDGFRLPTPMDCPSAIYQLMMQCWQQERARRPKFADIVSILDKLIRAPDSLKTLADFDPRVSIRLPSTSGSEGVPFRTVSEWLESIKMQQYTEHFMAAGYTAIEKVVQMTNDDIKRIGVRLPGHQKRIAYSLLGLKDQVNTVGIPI
Chain of Pim-1 (h) (P11309 whole entry): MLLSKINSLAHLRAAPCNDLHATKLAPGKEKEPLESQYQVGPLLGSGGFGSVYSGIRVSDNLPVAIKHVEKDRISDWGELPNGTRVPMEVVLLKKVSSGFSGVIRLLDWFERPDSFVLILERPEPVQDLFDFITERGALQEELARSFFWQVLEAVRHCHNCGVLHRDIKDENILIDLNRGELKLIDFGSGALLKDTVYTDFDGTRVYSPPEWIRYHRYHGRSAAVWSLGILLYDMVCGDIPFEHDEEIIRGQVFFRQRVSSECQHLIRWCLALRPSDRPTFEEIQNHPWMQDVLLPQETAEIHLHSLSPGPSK

In the case of FAKLAARLYRKALARQLGVAA [MMI-0300], the “gross scar appearance vs PBS-treated control mouse” value [1] is reported as “less inflammation and less scar formation” and the off-target kinase inhibition [2] is reported as “very limited off-target kinase inhibition”.
With KAFAKLAARLYRKALARQLGVAA [MMI-0400] the off-target kinase inhibition [2] was “very limited off-target kinase inhibition”.
YARAAARQARAKALARQLGVAA [MMI-0100] gave an IC50 [3] of 47.6 µM, an IC50 [4] of 34.1 µM and an IC50 [5] of 78.3 µM. It also gave an IC50 [6] of 128 µM, an IC50 [7] of 15.8 µM and an inhibition at 100 µM ([7]; at 100 μM, in vitro, read-out: inhibition of kinase activity of MK3) greater than 65%. For the same substance, the IC50 [8] was 4.6 µM, the inhibition at 100 µM ([8]; at 100 μM, in vitro) was greater than 65% and the IC50 [9] was 12.1 µM. It also gave an inhibition at 100 µM ([9]; at 100 μM, in vitro, read-out: inhibition of kinase activity of MK2) greater than 65%, an activity at 100 µM [10] of 85% and an IC50 [11] of 174 µM. For the same substance, the IC50 [12] was 45.8 µM, the IC50 [13] was 172 µM and the IC50 [14] was 114 µM. It also gave an IC50 [15] of 141 µM, an IC50 [16] of 71.7 µM and an IC50 [17] of 11.7 µM. For the same substance, the inhibition at 100 µM ([17]; read-out: inhibition of kinase activity of CaMKI) was greater than 65%, the IC50 [18] was 181 µM and the IC50 [19] was 102 µM. The “inhibition of off-target protein” value ([20]; concentration not given) was “less than 30%”, the activity at 100 µM [20, 27] was 81% and the “inhibition of off-target protein” value ([21]; concentration not given) was “less than 30%”. The activity at 100 µM [21, 27] was 85%, the “inhibition of off-target protein” value ([22]; concentration not given) was “less than 30%” and the activity at 100 µM [22, 27] was 86%.
In the case of “autocamtide-2 related inhibitory peptide [AIP]”, the PKA activity [23] is given as “not affected”, the CaMKIV activity [24] is given as “not affected” and the CaMKII activity ([25]; AIP 1 μM) is given as “inhibited completely”. For the same substance, the IC50 [25] was 0.1 µM and the PKC activity [26] was “not affected”.
